From ChEMBL document CHEMBL1201862, “PubChem BioAssay data set” (2004)
Active and inactive are the calls of the source.

Legend:
[1] = biological target: Ras and Rab interactor 1/Tyrosine-protein kinase ABL1 (Homo sapiens, UniProt P00519+Q13671); type: functional;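 note: biochemical TR-FRET dose-response test measuring inhibition of binding between Rin1 and Abl proteins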
[2] = cells; type: functional, cell-based
[3] = biological target: T1, Trace amine-associated receptor 1 (Homo sapiens, UniProt Q96RJ0); test: Fluorescence-based cell-based high throughput dose response assay to identify agonists of the human trace amine associated receptor 1 (TAAR1).; type: functional
T1 sequence (Q96RJ0 whole entry): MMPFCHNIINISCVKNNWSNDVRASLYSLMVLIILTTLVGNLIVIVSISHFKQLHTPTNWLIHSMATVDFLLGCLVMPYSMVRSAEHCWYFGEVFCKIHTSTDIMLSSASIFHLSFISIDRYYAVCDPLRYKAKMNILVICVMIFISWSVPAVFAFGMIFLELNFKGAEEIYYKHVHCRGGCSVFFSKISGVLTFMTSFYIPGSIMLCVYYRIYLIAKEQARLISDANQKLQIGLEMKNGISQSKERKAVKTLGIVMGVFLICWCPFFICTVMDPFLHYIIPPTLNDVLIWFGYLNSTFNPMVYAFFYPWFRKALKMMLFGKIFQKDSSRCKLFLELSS

[4] = biological target: T1, Trace amine-associated receptor 1; test: Counterscreen for agonists of the human trace amine associated receptor 1 (hTAAR1): Fluorescence-based cell-based high throughput dose response assay to identify hTAAR1 agonist that also desensitize TAAR1 receptor response.; type: functional
[5] = cells; type: functional, cell-based; remark: listed apart in the source
[6] = biological target: Heat shock protein HSP 90-alpha (Homo sapiens, UniProt P07900); type: functional, organism-based
[7] = biological target: Photoreceptor-specific nuclear receptor (Homo sapiens, UniProt Q9Y5X4); type: functional, cell-based;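 note: CHO-S cells with Gal4-NCOR and VP16-NR2E3 two-hybrid luciferase reporter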
Sequence of Photoreceptor-specific nuclear receptor (Q9Y5X4 whole entry, the tested form may be a part): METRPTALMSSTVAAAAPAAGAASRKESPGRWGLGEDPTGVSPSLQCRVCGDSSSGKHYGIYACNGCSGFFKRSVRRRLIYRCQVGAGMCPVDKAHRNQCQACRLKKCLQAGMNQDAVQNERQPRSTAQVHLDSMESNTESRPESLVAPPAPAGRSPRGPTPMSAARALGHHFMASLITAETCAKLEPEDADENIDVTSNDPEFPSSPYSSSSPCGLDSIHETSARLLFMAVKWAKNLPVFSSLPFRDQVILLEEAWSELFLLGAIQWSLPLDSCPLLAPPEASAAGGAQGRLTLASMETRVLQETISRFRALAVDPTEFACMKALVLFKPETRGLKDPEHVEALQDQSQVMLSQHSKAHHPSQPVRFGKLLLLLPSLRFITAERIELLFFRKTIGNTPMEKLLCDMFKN

[8] = viability loss in HeLa cells – cytotoxicity control for MgcRacGAP inhibitor project, dose response (AID 624300); type: functional
[9] = biological target: T2, Rac GTPase-activating protein 1 (Homo sapiens, UniProt Q9H0H5); test: blockers of MgcRacGAP-driven Rac1 GTP hydrolysis – biochemical, ADP Hunter fluorescence, primary and confirmatory, confirmation (AID 624330); type: functional
T2 sequence (Q9H0H5 whole entry): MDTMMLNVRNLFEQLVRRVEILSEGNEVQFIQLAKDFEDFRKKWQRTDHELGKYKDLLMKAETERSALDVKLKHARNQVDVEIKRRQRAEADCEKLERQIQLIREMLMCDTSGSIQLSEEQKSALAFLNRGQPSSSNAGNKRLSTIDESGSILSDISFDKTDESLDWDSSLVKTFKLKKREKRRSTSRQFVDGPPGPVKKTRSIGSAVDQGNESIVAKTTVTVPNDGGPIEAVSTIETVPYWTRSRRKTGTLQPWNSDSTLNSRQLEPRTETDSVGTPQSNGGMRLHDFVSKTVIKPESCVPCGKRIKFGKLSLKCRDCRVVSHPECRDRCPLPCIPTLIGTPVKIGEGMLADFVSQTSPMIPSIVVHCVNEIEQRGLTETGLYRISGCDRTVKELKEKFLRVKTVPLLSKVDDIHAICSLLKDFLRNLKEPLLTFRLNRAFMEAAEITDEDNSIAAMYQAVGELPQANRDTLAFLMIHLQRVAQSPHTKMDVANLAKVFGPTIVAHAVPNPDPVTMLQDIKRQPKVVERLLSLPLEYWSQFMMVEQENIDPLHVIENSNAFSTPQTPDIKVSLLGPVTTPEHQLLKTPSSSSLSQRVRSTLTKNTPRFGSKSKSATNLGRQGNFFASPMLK

[10] = biological target: T3, Sentrin-specific protease 8 (Homo sapiens, UniProt Q96LD8); test: inhibition of human SENP8 cleavage activity – biochemical, luminescence, SAR follow-up (AID 504501); type: functional
T3 sequence (Q96LD8 whole entry): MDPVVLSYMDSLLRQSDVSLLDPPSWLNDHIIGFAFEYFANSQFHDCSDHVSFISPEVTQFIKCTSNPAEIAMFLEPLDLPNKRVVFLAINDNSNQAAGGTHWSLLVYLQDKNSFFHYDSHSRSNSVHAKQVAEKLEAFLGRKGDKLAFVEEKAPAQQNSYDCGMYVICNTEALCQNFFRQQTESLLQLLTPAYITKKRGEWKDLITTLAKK

[11] = biological target: T4, Caspase-3 (Homo sapiens, UniProt P42574); test: SAR Analysis of small molecule inhibitors of Sentrin-specific proteases (SENPs) using a Caspase-3 Selectivity assay. [Related pubchem assays (depositor defined):AID2540, AID2599, AID434973, AID489001]; type: functional
T4 sequence (P42574 whole entry): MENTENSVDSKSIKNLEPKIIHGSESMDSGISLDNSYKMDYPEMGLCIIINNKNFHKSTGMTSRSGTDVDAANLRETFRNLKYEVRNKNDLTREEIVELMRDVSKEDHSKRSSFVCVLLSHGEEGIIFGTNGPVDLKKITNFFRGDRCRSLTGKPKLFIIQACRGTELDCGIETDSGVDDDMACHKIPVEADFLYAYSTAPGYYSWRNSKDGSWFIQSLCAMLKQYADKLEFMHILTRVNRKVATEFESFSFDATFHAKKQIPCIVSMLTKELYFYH

[12] = biological target: T5, Sentrin-specific protease 6 (Homo sapiens, UniProt Q9GZR1); test: SAR Analysis of small molecule inhibitors of Sentrin-specific protease 6 (SENP6) using a Luminescent assay. [Related pubchem assays (depositor defined):AID2582, AID2599]; type: functional
T5 sequence (Q9GZR1 whole entry): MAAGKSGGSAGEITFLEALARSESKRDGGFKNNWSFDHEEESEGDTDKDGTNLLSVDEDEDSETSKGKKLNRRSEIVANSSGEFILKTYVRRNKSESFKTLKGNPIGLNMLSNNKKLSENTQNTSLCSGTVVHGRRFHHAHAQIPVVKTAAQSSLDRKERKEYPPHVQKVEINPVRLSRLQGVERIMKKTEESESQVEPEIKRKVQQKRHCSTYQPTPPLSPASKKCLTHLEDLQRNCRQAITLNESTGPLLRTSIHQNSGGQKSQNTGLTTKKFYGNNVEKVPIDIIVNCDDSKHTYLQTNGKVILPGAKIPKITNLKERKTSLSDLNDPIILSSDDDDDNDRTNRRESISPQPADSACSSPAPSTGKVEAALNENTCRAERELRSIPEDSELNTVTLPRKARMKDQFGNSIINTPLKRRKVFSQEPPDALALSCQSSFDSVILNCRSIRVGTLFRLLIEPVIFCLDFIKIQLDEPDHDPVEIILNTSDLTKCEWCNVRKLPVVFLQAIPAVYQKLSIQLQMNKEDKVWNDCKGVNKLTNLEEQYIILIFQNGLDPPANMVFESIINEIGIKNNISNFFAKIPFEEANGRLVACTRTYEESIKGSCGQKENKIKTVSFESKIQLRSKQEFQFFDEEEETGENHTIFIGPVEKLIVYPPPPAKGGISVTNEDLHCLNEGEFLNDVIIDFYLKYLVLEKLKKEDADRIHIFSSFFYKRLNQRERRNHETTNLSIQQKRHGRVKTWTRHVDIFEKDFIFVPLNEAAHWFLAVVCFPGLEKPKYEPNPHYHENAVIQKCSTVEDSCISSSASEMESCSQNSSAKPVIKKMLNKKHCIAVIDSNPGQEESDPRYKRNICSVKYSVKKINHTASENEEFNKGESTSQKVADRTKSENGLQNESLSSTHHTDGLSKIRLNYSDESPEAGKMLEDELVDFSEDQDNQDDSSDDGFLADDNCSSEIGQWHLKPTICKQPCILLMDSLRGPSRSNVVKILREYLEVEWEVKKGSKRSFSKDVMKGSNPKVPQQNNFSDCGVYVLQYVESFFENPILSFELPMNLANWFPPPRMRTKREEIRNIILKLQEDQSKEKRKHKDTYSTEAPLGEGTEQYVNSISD

[13] = biological target: T6, Sentrin-specific protease 7 (Homo sapiens, UniProt Q9BQF6); test: inhibition of human SENP7 cleavage activity – biochemical, luminescence, SAR follow-up (AID 504497); type: functional
T6 sequence (Q9BQF6 whole entry): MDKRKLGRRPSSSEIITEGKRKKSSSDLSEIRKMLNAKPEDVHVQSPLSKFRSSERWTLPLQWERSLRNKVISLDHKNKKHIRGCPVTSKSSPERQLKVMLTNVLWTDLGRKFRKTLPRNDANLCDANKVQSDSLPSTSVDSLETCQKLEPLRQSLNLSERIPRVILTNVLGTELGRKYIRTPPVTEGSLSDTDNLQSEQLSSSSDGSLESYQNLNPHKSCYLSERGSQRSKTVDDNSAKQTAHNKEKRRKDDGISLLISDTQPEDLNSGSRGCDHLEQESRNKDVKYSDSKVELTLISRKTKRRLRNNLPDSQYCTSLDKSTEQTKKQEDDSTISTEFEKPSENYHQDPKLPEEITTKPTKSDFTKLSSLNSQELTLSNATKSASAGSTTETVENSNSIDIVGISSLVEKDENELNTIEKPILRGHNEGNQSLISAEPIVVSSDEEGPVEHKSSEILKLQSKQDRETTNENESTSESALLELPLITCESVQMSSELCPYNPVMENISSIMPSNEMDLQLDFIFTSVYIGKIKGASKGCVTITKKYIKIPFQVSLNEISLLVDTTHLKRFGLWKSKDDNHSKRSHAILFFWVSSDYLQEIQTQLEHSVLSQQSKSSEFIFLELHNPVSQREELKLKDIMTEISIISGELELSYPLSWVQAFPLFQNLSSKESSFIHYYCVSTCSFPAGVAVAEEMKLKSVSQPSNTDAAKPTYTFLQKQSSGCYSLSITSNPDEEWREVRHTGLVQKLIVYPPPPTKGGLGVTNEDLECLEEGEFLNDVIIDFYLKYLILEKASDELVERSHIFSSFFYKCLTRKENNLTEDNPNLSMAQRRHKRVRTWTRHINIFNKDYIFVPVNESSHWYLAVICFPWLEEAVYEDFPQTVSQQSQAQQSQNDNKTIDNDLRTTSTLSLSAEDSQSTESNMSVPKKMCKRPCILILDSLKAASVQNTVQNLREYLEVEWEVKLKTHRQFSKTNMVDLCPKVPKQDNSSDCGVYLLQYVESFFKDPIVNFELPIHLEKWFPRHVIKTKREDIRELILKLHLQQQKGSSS

[14] = biological target: T7, DNA repair and recombination protein RAD54-like (Homo sapiens, UniProt Q92698); test: RAD54 Holliday junction migration blockers – biochemical, fluorescence, cherry-picked samples, dose series, confirmation (AID 651657); type: functional
T7 sequence (Q92698 whole entry): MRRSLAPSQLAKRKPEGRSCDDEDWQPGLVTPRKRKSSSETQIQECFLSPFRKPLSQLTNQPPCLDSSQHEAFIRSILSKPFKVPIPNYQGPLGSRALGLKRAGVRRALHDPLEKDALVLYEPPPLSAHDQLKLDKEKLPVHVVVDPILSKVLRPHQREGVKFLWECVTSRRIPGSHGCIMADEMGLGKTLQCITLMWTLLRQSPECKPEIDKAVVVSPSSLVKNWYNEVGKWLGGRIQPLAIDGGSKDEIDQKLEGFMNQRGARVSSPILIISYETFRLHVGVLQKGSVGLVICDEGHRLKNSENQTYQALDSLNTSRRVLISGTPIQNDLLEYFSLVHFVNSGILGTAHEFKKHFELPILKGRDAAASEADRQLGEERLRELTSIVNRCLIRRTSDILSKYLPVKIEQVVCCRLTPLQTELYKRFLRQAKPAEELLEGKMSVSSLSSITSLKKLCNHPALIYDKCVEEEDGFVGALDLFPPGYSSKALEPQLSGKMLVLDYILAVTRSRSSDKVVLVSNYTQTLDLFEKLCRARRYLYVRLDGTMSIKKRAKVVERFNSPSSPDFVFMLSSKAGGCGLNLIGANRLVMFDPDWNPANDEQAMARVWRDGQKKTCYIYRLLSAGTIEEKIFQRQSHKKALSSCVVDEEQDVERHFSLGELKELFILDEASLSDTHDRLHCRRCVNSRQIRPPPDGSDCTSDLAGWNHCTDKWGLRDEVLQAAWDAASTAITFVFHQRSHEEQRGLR

[15] = biological target: T8, DNA repair protein RAD52 homolog (Homo sapiens, UniProt P43351); type: functional, biochemical
T8 sequence (P43351 whole entry): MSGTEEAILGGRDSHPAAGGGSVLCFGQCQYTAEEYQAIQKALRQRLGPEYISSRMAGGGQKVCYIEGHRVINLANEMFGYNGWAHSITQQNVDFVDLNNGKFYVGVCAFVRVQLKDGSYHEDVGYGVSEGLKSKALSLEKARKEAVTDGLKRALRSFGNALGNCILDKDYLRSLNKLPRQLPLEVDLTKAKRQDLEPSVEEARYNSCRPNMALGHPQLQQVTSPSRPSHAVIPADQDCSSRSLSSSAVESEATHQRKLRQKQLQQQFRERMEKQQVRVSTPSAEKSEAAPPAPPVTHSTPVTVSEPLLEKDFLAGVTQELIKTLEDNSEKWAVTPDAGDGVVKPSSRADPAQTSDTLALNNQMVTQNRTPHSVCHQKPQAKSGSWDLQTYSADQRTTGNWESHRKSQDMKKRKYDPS

Sequence of Ras and Rab interactor 1/Tyrosine-protein kinase ABL1 (P00519 whole entry): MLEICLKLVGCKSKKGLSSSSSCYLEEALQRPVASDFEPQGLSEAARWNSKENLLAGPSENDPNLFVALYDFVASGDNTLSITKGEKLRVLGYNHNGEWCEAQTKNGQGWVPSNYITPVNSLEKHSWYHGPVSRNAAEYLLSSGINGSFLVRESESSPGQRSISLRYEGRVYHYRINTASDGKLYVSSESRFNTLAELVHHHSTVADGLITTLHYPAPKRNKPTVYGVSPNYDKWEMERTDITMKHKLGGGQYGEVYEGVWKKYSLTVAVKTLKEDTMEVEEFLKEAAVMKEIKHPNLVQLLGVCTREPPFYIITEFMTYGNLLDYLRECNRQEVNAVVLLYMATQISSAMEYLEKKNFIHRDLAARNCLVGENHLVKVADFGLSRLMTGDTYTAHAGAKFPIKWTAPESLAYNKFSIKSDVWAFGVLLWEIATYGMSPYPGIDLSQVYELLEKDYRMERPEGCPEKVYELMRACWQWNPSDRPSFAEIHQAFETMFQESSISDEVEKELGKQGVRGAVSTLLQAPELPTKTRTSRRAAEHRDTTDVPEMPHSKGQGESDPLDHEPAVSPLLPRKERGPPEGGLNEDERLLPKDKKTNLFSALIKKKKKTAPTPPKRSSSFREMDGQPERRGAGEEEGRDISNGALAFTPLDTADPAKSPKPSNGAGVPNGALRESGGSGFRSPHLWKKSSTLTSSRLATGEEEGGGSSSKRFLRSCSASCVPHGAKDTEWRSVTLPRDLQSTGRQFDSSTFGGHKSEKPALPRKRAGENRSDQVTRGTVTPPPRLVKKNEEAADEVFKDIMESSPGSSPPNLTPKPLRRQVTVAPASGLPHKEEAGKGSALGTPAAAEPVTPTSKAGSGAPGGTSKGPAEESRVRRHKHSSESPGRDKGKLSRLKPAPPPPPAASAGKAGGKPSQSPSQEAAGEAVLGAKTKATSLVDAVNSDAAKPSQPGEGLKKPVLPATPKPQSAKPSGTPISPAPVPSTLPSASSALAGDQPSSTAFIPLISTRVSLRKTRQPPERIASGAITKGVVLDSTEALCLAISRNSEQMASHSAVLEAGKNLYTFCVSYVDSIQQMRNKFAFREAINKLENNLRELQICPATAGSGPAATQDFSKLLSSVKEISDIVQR
Sequence of Ras and Rab interactor 1/Tyrosine-protein kinase ABL1 (Q13671 whole entry): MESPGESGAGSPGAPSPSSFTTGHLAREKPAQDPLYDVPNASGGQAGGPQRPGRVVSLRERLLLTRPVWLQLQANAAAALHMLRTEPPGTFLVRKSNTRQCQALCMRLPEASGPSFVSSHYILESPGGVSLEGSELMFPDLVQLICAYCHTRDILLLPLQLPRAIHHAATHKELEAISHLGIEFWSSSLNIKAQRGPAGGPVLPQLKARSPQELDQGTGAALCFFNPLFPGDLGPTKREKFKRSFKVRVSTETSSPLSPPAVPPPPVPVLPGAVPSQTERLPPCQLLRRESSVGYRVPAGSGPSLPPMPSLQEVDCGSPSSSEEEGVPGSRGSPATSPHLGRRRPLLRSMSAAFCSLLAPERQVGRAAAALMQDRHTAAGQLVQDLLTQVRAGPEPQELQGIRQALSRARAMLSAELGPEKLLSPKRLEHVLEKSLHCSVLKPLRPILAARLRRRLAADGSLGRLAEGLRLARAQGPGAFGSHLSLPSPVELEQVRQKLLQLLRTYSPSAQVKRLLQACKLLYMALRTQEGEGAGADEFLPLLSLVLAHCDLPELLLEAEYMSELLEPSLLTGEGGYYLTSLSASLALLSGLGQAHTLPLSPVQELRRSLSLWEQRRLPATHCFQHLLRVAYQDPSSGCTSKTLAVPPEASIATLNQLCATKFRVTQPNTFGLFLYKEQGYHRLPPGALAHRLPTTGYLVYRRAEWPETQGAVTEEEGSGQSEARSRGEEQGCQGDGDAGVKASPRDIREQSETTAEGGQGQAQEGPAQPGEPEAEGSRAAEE

COc1ccc(CCNc2cc(=O)[nH]c(N)n2)cc1
IC50 [1]: 5.15 µM (active)

COc1cc(CCN)ccc1O
IC50 [2]: > 29.9 µM (inactive)
EC50 [3]: 2.4 µM (active)
IC50 [4]: 21.6 µM (inactive)
EC50 [5]: > 29.9 µM (inactive)

CCOc1ccc(CCNC(=O)CN2C(=O)c3cccnc3Oc3ccc(Cl)cc32)cc1
IC50 [1]: > 73.5 µM (inactive)

O=C1C=CC2(O[C@H](c3ccccc3)[C@@H](c3ccccc3)O2)[C@H](Sc2ccccc2O)C1
AC50 [6]: 4.16 µM (active)
IC50 [7]: 4.1 µM (active)
CC50 [8]: 50 µM (active)
IC50 [9]: 43.8 µM (active)

COc1ccc2nc(NC(=O)c3ccc4c(c3)OCCO4)sc2c1
IC50 [10]: > 99 µM (inactive)
IC50 [11]: > 99 µM (inactive)
IC50 [12]: > 99 µM (inactive)
IC50 [13]: > 99 µM (inactive)

Cc1csc(C(=O)Nc2nc3ccc(Cl)cc3s2)c1
IC50 [10]: > 99 µM (inactive)
IC50 [11]: 36 µM (active)
IC50 [12]: > 99 µM (inactive)
IC50 [13]: 89 µM (active)

COc1cccc(-c2cc3nc(NCCN4CCCC4)n(C)c(=O)c3s2)c1
AC50 [14]: 45.4 µM (active)
AC50 [15]: 5.5 µM (active)

Cc1cc(NC(=O)COC(=O)CNC(=O)c2sc3ccccc3c2Cl)no1
IC50 [10]: > 99 µM (inactive)
IC50 [11]: > 99 µM (inactive)
IC50 [12]: > 99 µM (inactive)
IC50 [13]: > 99 µM (inactive)

COc1ccccc1Nc1c2ccccc2nc2ccccc12
AC50 [14]: 29.8 µM (active)
